Measured values: ChEMBL document CHEMBL4477238, “Ligand binding cooperativity: Bioisosteric replacement of CO with SO2 among thrombin inhibitors” (Bioorg Med Chem Lett, 2016)

Target: Prothrombin (Homo sapiens, UniProt P00734)
Experiment: Inhibition of human alpha-thrombin using chromogenic substrate Pefachrome tPa measured every second for 20 mins by spectrophotometry

SMILES | Ki [µM]
CCCS(=O)(=O)N1CCC[C@H]1C(=O)NCc1ccc(C(=N)N)cc1 | 12
CCS(=O)(=O)N1CCC[C@H]1C(=O)NCc1ccc(C(=N)N)cc1 | 117
CC(C)CS(=O)(=O)N1CCC[C@H]1C(=O)NCc1ccc(C(=N)N)cc1 | 3.4
CC(C)CC(=O)N1CCC[C@H]1C(=O)NCc1ccc(C(=N)N)cc1 | 4

Compounds with a lower Ki, results first:

Ki [µM] | SMILES
0.2 | N=C(N)c1ccc(CNC(=O)[C@@H]2CCCN2C(=O)Cc2ccccc2)cc1
2.5 | N=C(N)c1ccc(CNC(=O)[C@@H]2CCCN2S(=O)(=O)Cc2ccccc2)cc1
2.7 | CC(C)CCS(=O)(=O)N1CCC[C@H]1C(=O)NCc1ccc(C(=N)N)cc1
